# Experimental data as given in US10653779B2, “Formulations with reduced oxidation” (Genentech, Inc., priority 2013, dated 2020).
# System: mAb1
# Assay: mAb1 Fenton stress study (H2O2 + Fe); Fab/Fc oxidation by RP-HPLC
# Assay type: physicochemical, human
# Conditions: 1 mM, 10 ppm H2O2, 0.2 mM Fe(III), 40° C. for 3 hours
# Procedure: Antioxidants were added at a final concentration of 1 mM. […] After incubation, each reaction was quenched by addition of 100 mM L-Met and then prepared for analysis by reverse-phase HPLC as described above.
# The Fenton reaction, using a mixture of H2O2 and Fe ions, generates oxidation through a metal catalyzed, hydroxyl radical reaction (Prousek et al., Pure and Applied Chemistry 79(12):2325-2338 (2007)). This reaction generated Fab, i.e. tryptophan, oxidation in mAb1. The reaction was also carried out in the presence of select antioxidants that were useful against both AAPH and light induced oxidation as reported above. Data related to the antioxidant properties against Fenton mediated reaction were analyzed using the RP-HPLC assay as described above. The Fenton reaction used 10 ppm of H2O2 and 0.2 mM of Fe(III). The reaction was incubated at 40° C. for 3 hours, quenched with 100 mM L-Met and analyzed using RP-HPLC after papain digest. All samples were the average of three separate vials, and mAb1 control (Ref Mat) was one vial with five independent injections on the HPLC. […] In regards to protection against Fc oxidation, the tested excipients (other than salicylic acid) performed slightly better than L-Trp.
structure (smiles),measurement,value
"N[C@@H](Cc1c[nH]c2ccccc12)C(=O)O [L-Trp, L-Tryptophan]",Protection of Fab oxidation with respect to the no excipient case,about 25%
